# Measurements reported in patent publication US20250344693A1, “HERBICIDE SUSPENSION CONCENTRATES AND METHOD FOR THEIR PREPARATION” (NUFARM AUSTRALIA LIMITED, priority 2022, published 2025).
# Assay: Hot solution temperature: homogeneous solution of active with excipient or second active
# Format: physicochemical
# Method: Numerous materials may act to form solutions of agrochemicals at elevated temperature. The solubility of MCPA, 2,4-D) and mecoprop with a range of common excipients was assessed at elevated temperature. To establish the melting behaviour of the individual actives, each active (1.25 g) was weighed into a 40 mL vial and heated gradually using a hotplate and Asynt heating insert until full melted, and the melting range was noted. […] To establish hot solvent behaviour, a range of excipients were weighed into 40 mL vials (0.676 g) with each chosen active (1.25 g). The mixtures were then heated gradually until a fully homogeneous solution was observed and the temperature was noted as described above. Additionally, the potential for agrochemicals to act as solvents for a second agrochemical at elevated temperature was also studied by combining the active ingredients in a ratio of 1.85:1 active:active ‘solvent’ following the same procedure as described above. For example, in a mixture where the first active was MCPA (1.25 g) and the second was mecoprop (0.676 g) both actives were added to a 40 mL vial and heated following the procedure detailed above. Where a homogeneous phase is observed below the measured melting point of the study active ingredient, a hot solution is considered to have been formed and the excipient is deemed to act as a solvent at elevated temperature.
# Where the “solvent” is listed as “None”, the temperature stated represents the formation of a homogeneous melt.
smiles,measurement,setting,value
"O=C(O)COc1ccc(Cl)cc1Cl [2,4-D, 2,4-dichlorophenoxyacetic acid]",Solution temp range (° C.),"2nd active Dichloroprop-P as solvent, ratio 1.85:1",130-132 °C
same,Solution temp range (° C.),"2nd active MCPA as solvent, ratio 1.85:1",140-142 °C
same,Solution temp range (° C.),"2nd active Mecoprop as solvent, ratio 1.85:1 active:active solvent",130-131 °C
same,temperature range where homogeneous solutions formed (° C.),"solvent 1,2-Propanediol",110-112 °C
same,temperature range where homogeneous solutions formed (° C.),solvent Altox 4894,121-125 °C
same,temperature range where homogeneous solutions formed (° C.),solvent Altox 4912,138-140 °C
same,temperature range where homogeneous solutions formed (° C.),solvent Altox 4913,116-120 °C
same,temperature range where homogeneous solutions formed (° C.),solvent Atlas G5000,129-131 °C
same,temperature range where homogeneous solutions formed (° C.),solvent Atlox 4915,134-137 °C
same,temperature range where homogeneous solutions formed (° C.),solvent Atlox 4916,140-141 °C
same,temperature range where homogeneous solutions formed (° C.),solvent Atplus 245,123-126 °C
same,temperature range where homogeneous solutions formed (° C.),solvent Atplus PFA,127-130 °C
same,temperature range where homogeneous solutions formed (° C.),solvent Atplus UEP,132-135 °C
same,temperature range where homogeneous solutions formed (° C.),solvent Crodamol AB,136-138 °C
same,temperature range where homogeneous solutions formed (° C.),solvent Crodamol GTCC,138-140 °C
same,temperature range where homogeneous solutions formed (° C.),solvent Dipropylene glycol dimethyl ether,114-116 °C
same,temperature range where homogeneous solutions formed (° C.),solvent Genapol X020,118-121 °C
same,temperature range where homogeneous solutions formed (° C.),solvent Genapol X050,120-123 °C
same,temperature range where homogeneous solutions formed (° C.),solvent Genapol X060,118-122 °C
same,temperature range where homogeneous solutions formed (° C.),solvent Genapol X080,118-121 °C
same,temperature range where homogeneous solutions formed (° C.),"solvent Glycerol, 1.25 g active, 0.676 g excipient",116-118 °C
same,temperature range where homogeneous solutions formed (° C.),solvent Multiwet MO85,140-143 °C
same,temperature range where homogeneous solutions formed (° C.),solvent PEG 400,122-123 °C
same,temperature range where homogeneous solutions formed (° C.),solvent PEG 1000,124-126 °C
same,temperature range where homogeneous solutions formed (° C.),solvent PEG 4000,134-136 °C
same,temperature range where homogeneous solutions formed (° C.),solvent Pluronic F68,137-140 °C
same,temperature range where homogeneous solutions formed (° C.),solvent Pluronic F127,137-140 °C
same,temperature range where homogeneous solutions formed (° C.),solvent Propylene glycol,110-112 °C
same,temperature range where homogeneous solutions formed (° C.),solvent Synperonic PE/L31,129-130 °C
same,temperature range where homogeneous solutions formed (° C.),solvent Synperonic PE/L64,132-135 °C
same,temperature range where homogeneous solutions formed (° C.),solvent Synprolam 35X15,123-126 °C
same,temperature range where homogeneous solutions formed (° C.),solvent Tween 22,120-124 °C
same,temperature range where homogeneous solutions formed (° C.),solvent Tween 23,120-124 °C
same,temperature range where homogeneous solutions formed (° C.),solvent Tween 24,120-124 °C
